These results are taken from publication PMC8434050, “Design, Synthesis and SAR in 2,4,7-Trisubstituted Pyrido[3,2-d]Pyrimidine Series as Novel PI3K/mTOR Inhibitors” (Molecules, 2021).

In test [1] the target is PI3Kα (Homo sapiens, UniProt P42336). Briefly: PI3Kα kinase assay (Adapta TR-FRET kit; capillary electrophoresis assay). The class given is biochemical. As to conditions: for IC50: mean of a triplicate experiment, standard deviation in small letters.
Method: PI3K kinase activity was measured with the Adapta™ assay kit (Invitrogen, PV5099, Life Technologies, Carlsbad, CA, USA) while mTOR kinase activity was measured with the LANCE^TM Ultra kit (Perkin Elmer). […] Depending on the efficiency of the inhibitor, the level of ADP (which competes with the tracer) will vary, thereby directly affecting the binding of the tracer to the antibody. The TR-FRET signal will evolve accordingly. […] The experimental process was the following: the inhibitor solution (2.5 µL) was injected in a plate followed by the addition of 2.5 µL of PI3Kα and ATP/PIP2 (5 µL) solutions. After incubating for an hour at room temperature with no agitation and with the plate sealed, the kinase reaction was stopped by adding the Detection Solution to yield final concentrations of 10 nM for the tracer, 2 nM for the antibody and 30 mM of EDTA (5 µL). All of these compounds were diluted in a Detection Buffer (PV3574, Invitrogen) and the plate was sealed and incubated for the optimal time of 30 min at room temperature without shaking before the reading step.
The CE system used was a 1600 Hewlett Packard^3DCE (Agilent, Waldbronn, Germany) equipped with a photodiode array detection system. Agilent software 3D-CE Chemstation (rev B.04.02) was used to pilot the CE system and for signal acquisition. CE analyses were performed in silica capillaries (66 cm total length, 57.5 cm effective length, 50 µm i.d.) purchased from Polymicro Technologies (Phoenix, AZ, USA). New capillaries were conditioned by 1.0 M NaOH for 30 min and water for 5 min. They were then coated by rinsing with cationic PDADMAC solution (0.2% w/v) [46, 47]. The separation was conducted at −30 kV (reverse polarity) and at 30 °C. All rinse cycles were carried out at 4 bars. Between runs, the capillary was flushed for 1 min with water, 2 min with PDADMAC and 3 min with BGE.
(§6) All solutions were prepared with pure water, filtered through 0.45 µm PVDF Filter and stored at 4 °C. […] Their pH was measured with a MeterLab PHM201 Portable pH-Meter (Radiometer Analytical, Villeurbanne, France). […]
Test [2] concerns the target PI3Kβ (Homo sapiens, UniProt P42338). Briefly: PI3K isoform kinase assay, β (CE-assay). As to conditions: read-out: IC50 on PI3K Isoforms, β. Format: biochemical. As for the experimental part: (§1) The CE system used was a 1600 Hewlett Packard^3DCE (Agilent, Waldbronn, Germany) equipped with a photodiode array detection system. Agilent software 3D-CE Chemstation (rev B.04.02) was used to pilot the CE system and for signal acquisition. CE analyses were performed in silica capillaries (66 cm total length, 57.5 cm effective length, 50 µm i.d.) purchased from Polymicro Technologies (Phoenix, AZ, USA). New capillaries were conditioned by 1.0 M NaOH for 30 min and water for 5 min. They were then coated by rinsing with cationic PDADMAC solution (0.2% w/v). The separation was conducted at −30 kV (reverse polarity) and at 30 °C. All rinse cycles were carried out at 4 bars. Between runs, the capillary was flushed for 1 min with water, 2 min with PDADMAC and 3 min with BGE.
(§2) All solutions were prepared with pure water, filtered through 0.45 µm PVDF Filter and stored at 4 °C. For PI3K and mTOR assays, the incubation buffer was HEPES/NaOH/MgCl2 (25 mM/8.84 mM/5 mM). Its pH was 7.2 and ionic strength was about 60 mM. […] Their pH was measured with a MeterLab PHM201 Portable pH-Meter (Radiometer Analytical, Villeurbanne, France). […]
(§3) In all enzymatic assays, after incubation, the electric field (of −30 kV) was applied to separate the ADP formed during the enzymatic reaction from the other reactants. ADP was detected at 254 nm for quantification. […]

Test [3] deals with PI3Kγ (Homo sapiens, UniProt P48736). Briefly: PI3K isoform kinase assay, γ (CE-assay). Format: biochemical. As to conditions: read-out: IC50 on PI3K Isoforms, γ. As for the experimental part:
as §1, §2, §3

Test [4] has as its target PI3Kδ (Homo sapiens, UniProt O00329). Briefly: PI3K isoform kinase assay, δ (CE-assay). Particulars: read-out: IC50 on PI3K Isoforms, δ. The class given is biochemical. As for the experimental part:
as §1, §2, §3

The subject of test [5] is normal human fibroblast. The test is described as follows: Cytotoxic assay on fibroblasts. The class given is cell-based. As to conditions: 48 h of treatment, cell number by Hoechst nuclei staining, mean of triplicate. As for the experimental part: (§4) Cell culture. Skin normal fibroblastic cells were purchased from Lonza (Basel, Switzerland), HuH7, Caco-2, MDA-MB-231 and Hacat cancer cell lines were obtained from the ECACC collection (Porton Down, UK). Cells were grown at 37 °C, 5% CO2 in ECACC recommended media: DMEM for HuH7, MDA-MB-231 and fibroblast, EMEM for CaCo-2 and Hacat. All culture media were supplemented by 10% of FBS, 1% of penicillin-streptomycin and 2 mM glutamine.
(§5) Cytotoxic assay. Chemicals were solubilized in DMSO at a concentration of 10 mM (stock solution) and diluted in culture medium to the desired final concentrations. […] Cells were plated in 96-well plates (4000 cells/well). Twenty-four hours after seeding, cells were exposed to chemicals. After 48h of treatment, cells were washed in PBS and fixed in cooled 90% ethanol/5% acetic acid for 20 min and the nuclei were stained with Hoechst 33,342 (B2261 Sigma). Image acquisition and analysis were performed using a Cellomics ArrayScan VTI/HCS Reader (ThermoScientific). The survival percentages were calculated as the percentage of cell number after compound treatment over cell number after DMSO treatment. The relative IC50 were calculated using the curve fitting XLfit 5.5.0.5 (idbs) integrated in Microsoft Excel as an add-on. The 4 Parameter Logistic Model or Sigmoidal Dose-Response Model was used (fit = (A + ((B − A)/(1 + ((C/x)^D))))).

Test [6] deals with mTOR (Homo sapiens, UniProt P42345). The test is described as follows: mTOR kinase assay (LANCE Ultra kit; capillary electrophoresis assay). Particulars: selectivity index, IC50 mTOR / IC50 PI3Kα. Format: biochemical.
Method: The amount of antibody bound to the peptide is directly related to its rate of phosphorylation. […] The experimental process was the following: inhibitor solution (2.5 µL) was injected in a plate followed by the addition of 2.5 µL of mTOR, and ATP/peptide (2.5 µL) solutions. After incubating for two hours at room temperature with no agitation and with the plate sealed, the kinase reaction was stopped by adding 5 μL of a solution at 32 mM EDTA. After 5 min of plate agitation, the detection solution (CR97-100, Perkin-Elmer) containing the antibody (5 μL) was added in each well to yield a final concentration of 2 nM of the antibody. The plate was sealed and incubated for the optimal time of 1h at room temperature without shaking before the assay readout at 665 nm.
The CE system used was a 1600 Hewlett Packard^3DCE (Agilent, Waldbronn, Germany) equipped with a photodiode array detection system. […]
as §6
Test [7] relates to mammary carcinoma MDA-MB231. Briefly: Cytotoxic assay on MDA-MB231. Format: cell-based. As to conditions: Homo sapiens, MDA-MB-231; 48 h of treatment, cell number by Hoechst nuclei staining, mean of triplicate. As for the experimental part:
as §4, §5

PI3Kα, sequence (P42336 whole entry, canonical isoform): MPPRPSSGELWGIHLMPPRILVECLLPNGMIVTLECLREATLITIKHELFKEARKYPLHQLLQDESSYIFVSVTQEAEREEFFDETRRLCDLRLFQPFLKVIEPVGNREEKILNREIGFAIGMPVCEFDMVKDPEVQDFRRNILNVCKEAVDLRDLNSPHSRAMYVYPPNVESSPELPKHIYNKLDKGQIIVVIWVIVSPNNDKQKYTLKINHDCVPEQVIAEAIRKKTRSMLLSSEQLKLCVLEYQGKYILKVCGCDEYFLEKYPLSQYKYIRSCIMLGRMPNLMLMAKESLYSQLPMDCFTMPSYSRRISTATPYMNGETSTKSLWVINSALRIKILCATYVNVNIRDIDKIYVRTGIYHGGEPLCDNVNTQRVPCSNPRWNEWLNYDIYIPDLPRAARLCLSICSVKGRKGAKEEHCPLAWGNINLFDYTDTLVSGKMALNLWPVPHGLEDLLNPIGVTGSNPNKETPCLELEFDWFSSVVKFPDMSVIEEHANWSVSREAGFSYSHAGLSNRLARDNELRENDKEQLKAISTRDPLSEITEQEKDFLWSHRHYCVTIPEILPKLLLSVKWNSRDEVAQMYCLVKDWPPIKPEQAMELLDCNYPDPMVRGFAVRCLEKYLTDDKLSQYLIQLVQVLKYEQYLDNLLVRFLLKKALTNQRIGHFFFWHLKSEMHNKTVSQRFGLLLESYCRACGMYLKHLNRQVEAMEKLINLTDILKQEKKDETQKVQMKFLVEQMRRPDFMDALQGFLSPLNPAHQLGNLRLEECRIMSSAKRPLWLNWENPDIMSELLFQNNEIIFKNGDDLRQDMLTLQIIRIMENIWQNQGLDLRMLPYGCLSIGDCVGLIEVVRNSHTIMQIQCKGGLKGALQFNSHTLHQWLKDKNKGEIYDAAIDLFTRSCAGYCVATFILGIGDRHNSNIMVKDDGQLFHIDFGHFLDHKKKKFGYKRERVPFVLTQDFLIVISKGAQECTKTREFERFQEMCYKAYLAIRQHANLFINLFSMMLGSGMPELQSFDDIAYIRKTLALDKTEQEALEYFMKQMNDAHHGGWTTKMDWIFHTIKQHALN
PI3Kα, sequence (P27986 whole entry partner, canonical isoform): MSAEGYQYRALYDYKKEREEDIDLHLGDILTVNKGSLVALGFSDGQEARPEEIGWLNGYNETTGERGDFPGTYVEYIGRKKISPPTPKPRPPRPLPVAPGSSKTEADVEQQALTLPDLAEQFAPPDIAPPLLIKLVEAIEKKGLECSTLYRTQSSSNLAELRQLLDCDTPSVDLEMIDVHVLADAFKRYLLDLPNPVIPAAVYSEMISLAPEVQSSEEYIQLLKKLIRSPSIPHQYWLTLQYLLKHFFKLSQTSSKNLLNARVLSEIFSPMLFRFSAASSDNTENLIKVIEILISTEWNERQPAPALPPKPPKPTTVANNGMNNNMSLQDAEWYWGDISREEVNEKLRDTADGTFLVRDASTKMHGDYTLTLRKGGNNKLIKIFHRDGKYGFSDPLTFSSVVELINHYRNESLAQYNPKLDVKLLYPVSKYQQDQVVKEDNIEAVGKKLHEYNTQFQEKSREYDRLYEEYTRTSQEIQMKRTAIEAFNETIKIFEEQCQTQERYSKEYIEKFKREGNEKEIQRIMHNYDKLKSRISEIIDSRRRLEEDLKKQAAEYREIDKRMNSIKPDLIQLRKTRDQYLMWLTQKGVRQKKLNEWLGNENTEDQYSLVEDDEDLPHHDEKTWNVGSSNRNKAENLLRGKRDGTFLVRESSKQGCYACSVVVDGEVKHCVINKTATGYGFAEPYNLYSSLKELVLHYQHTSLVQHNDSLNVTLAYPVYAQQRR
PI3Kδ, sequence (O00329 whole entry, canonical isoform): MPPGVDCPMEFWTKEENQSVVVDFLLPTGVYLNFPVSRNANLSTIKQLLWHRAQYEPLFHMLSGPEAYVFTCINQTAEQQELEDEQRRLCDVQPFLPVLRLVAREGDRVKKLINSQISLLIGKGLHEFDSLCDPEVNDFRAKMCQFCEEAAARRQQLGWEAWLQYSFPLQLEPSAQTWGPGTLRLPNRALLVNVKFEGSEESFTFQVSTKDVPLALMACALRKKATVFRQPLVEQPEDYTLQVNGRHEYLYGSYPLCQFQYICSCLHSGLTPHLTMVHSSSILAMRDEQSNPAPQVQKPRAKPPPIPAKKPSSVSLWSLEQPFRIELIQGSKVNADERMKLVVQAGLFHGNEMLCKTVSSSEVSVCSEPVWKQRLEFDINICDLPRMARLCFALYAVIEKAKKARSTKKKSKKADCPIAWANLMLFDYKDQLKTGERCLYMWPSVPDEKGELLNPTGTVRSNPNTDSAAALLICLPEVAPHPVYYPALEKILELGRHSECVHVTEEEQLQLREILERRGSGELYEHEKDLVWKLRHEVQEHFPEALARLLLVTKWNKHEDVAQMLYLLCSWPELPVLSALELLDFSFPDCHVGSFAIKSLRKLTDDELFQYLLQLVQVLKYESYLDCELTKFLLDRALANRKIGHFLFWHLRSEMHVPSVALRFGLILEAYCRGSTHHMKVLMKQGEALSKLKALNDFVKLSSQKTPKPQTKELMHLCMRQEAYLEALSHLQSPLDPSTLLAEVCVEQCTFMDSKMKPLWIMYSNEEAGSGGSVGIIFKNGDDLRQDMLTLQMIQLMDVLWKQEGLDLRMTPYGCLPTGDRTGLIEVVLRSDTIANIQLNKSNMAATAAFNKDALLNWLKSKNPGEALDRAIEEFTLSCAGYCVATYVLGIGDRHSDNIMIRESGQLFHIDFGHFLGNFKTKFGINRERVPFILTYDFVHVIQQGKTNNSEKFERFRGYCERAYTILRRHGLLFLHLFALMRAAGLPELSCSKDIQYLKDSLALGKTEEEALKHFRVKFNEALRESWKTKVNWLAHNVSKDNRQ
PI3Kδ, sequence (P27986 whole entry partner, canonical isoform): as the sequence (P27986 whole entry partner, canonical isoform) above
PI3Kβ, sequence (P42338 whole entry, canonical isoform): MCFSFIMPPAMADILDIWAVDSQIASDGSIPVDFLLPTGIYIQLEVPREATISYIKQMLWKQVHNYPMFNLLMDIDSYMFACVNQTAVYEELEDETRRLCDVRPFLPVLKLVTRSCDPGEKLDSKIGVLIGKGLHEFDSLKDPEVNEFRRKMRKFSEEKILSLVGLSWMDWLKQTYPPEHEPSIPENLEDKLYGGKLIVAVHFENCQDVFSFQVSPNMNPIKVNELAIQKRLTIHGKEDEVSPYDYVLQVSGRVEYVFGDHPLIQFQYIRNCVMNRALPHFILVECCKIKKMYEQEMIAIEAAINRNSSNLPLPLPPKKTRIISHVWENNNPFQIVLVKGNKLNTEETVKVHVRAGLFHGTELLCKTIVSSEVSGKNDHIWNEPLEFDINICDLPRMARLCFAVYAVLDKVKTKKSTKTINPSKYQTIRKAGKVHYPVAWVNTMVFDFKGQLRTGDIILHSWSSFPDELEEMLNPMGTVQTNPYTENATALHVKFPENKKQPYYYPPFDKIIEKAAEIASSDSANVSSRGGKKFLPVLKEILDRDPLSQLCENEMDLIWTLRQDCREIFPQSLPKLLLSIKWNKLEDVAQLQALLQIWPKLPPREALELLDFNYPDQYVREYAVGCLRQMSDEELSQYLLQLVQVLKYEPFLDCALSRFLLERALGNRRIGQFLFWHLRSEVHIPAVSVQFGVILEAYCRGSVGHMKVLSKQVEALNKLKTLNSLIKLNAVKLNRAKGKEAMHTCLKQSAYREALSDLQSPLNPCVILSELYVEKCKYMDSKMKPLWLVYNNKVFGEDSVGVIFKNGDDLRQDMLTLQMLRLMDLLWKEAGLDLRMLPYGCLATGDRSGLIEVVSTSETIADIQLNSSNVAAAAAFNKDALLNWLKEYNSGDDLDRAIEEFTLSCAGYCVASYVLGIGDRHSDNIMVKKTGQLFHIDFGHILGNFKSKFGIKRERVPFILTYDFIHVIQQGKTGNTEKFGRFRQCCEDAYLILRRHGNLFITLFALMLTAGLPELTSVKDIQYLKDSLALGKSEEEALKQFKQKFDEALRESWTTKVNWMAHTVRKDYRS
PI3Kβ, sequence (P27986 whole entry partner, canonical isoform): as the sequence (P27986 whole entry partner, canonical isoform) above
PI3Kγ, sequence (P48736 whole entry, canonical isoform): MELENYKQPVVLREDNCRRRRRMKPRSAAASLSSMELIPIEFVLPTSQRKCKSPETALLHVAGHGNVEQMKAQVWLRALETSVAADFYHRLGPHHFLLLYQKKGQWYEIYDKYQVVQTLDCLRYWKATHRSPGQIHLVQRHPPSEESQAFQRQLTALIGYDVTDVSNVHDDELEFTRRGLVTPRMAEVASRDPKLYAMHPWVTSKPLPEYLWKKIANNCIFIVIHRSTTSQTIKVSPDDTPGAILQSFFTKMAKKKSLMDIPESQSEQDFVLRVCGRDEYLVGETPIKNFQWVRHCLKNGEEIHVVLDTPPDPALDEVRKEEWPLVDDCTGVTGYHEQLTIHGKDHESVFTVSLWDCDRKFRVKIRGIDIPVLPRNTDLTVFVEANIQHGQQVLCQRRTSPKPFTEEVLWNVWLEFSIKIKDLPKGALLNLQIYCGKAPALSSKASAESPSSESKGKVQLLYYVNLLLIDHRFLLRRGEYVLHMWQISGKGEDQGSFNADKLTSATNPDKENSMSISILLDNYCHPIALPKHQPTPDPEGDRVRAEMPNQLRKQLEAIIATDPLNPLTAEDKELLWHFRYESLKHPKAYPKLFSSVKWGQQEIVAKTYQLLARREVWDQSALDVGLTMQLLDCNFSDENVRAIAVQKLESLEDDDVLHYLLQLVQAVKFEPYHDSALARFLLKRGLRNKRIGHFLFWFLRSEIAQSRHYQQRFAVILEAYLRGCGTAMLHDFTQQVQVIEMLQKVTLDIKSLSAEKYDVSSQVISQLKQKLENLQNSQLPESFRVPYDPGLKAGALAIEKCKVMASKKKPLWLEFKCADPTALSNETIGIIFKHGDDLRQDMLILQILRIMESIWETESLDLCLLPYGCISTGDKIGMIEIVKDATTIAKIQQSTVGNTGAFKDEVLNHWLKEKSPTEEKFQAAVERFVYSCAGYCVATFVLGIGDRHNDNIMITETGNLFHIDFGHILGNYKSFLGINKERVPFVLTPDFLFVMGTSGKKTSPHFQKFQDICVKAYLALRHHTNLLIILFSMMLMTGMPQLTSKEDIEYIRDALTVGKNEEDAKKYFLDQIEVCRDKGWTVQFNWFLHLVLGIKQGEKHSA

As for `COCc1cn(Cc2cnc3c(N4CCOCC4)nc(-c4cccc(O)c4)nc3c2)nn1` [Compound 21, 3-(7-((4-(Methoxymethyl)-1H-1.2.3-triazol-1-yl)methyl)-4-morpholinylpyrido[3,2-d]pyrimidin-2-yl)phenol], the half-inhibitory concentration (IC50) is 10 nM in test [1]; 50 nM in test [2]; 2000 nM in test [3]; 1200 nM in test [4]; above 25000 nM in test [5].

Take `OCc1cnc2c(N3CCOCC3)nc(-c3cccc(O)c3)nc2c1` [Compound 15, 3-(7-(Hydroxymethyl)-4-morpholinylpyrido[3,2-d]pyrimidin-2-yl)phenol]: the “fold reduction in the PI3Kα inhibition level” value in test [1] (C-7 hydroxymethyl compared with chlorine or methyl derivatives 5 and 6) is 30 fold.

Consider `Cc1cnc2c(N3CCOCC3)nc(-c3cccc(O)c3)nc2c1` [Compound 6, 3-(7-Methyl-4-morpholinylpyrido[3,2-d]pyrimidin-2-yl)phenol], for which the “SI (mTOR/PI3Kα Ratio)” value in test [6] was determined as 4.6. Besides, the IC50 in test [2] amounted to 450 nM; in test [3] it was 5500 nM; in test [4], 1400 nM.

As for `Oc1cccc(-c2nc(N3CCOCC3)c3ncc(Cl)cc3n2)c1` [Compound 5, 7-Chloro-2-(3-hydroxyphenyl)-4-morpholinylpyrido[3,2-d]pyrimidine], the IC50 in test [7] and in test [5] was above 25000 nM throughout.

Regarding `CO/N=C/c1cnc2c(N3CCOCC3)nc(-c3cccc(O)c3)nc2c1` [Compound 32, 2-(3-Hydroxyphenyl)-4-morpholinylpyrido[3,2-d]pyrimidine-7-carbaldehyde O-methyl oxime], the IC50 in test [1] was 3 nM; in test [7], above 25000 nM. The “SI (mTOR/PI3Kα Ratio)” value in test [6] amounted to 33.3.

As for `[N-]=[N+]=NCc1cnc2c(N3CCOCC3)nc(-c3cccc(O)c3)nc2c1` [Compound 19, 3-(7-(Azidomethyl)-4-morpholinylpyrido[3,2-d]pyrimidin-2-yl)phenol], the IC50 in test [7] and in test [5] was above 25000 nM in each case.
